The values that follow are results of earlier work, collected in PMC4826315 (Journal of molecular biology, 2016).

One series deals with Mdm2. The settings on record: read-out: IC50, inhibition of p53 binding to Mdm2; FP assay.
Another series relates to retinoblastoma tumors. Particulars: mouse model system.

By IC50 is commonly meant the concentration needed to halve the response being measured. Turning to `COc1ccc(C2=N[C@@H](c3ccc(Cl)cc3)[C@@H](c3ccc(Cl)cc3)N2C(=O)N2CCNC(=O)C2)c(OC(C)C)c1` [Nutlin-3a], the IC50 in the series with Mdm2 is […]. In the series on retinoblastoma tumors, the “effect on retinoblastoma tumors” value is “caused regression of retinoblastoma tumors”.
